Calls of active or inactive are those of the source. A value given as a limit tells only on which side of the number the result lay.

Experiment [1] addresses T1, Bcl-2-related protein A1 (Mus musculus, UniProt Q07440).
T1 sequence (Q07440 whole entry): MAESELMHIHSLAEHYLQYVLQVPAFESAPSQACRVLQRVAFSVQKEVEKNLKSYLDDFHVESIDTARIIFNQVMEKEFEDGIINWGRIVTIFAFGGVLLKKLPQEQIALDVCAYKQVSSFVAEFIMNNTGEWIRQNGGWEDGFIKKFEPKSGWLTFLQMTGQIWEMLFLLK
The experiment is classed as functional.

For experiment [2], the target named is T2, Ubiquitin-conjugating enzyme E2 N (Homo sapiens, UniProt P61088).
T2 sequence (P61088 whole entry): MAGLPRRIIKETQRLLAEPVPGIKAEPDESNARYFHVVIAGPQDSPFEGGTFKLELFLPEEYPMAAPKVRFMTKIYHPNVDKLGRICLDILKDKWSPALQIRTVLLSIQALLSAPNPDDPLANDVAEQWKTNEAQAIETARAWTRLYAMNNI
The experiment is classed as functional.

Experiment [3] deals with T2, Ubiquitin-conjugating enzyme E2 N. The format is functional. The source holds these as a separate data set.
For experiment [4], the target named is T3, Apoptotic protease-activating factor 1 (Homo sapiens, UniProt O14727).
T3 sequence (O14727 whole entry): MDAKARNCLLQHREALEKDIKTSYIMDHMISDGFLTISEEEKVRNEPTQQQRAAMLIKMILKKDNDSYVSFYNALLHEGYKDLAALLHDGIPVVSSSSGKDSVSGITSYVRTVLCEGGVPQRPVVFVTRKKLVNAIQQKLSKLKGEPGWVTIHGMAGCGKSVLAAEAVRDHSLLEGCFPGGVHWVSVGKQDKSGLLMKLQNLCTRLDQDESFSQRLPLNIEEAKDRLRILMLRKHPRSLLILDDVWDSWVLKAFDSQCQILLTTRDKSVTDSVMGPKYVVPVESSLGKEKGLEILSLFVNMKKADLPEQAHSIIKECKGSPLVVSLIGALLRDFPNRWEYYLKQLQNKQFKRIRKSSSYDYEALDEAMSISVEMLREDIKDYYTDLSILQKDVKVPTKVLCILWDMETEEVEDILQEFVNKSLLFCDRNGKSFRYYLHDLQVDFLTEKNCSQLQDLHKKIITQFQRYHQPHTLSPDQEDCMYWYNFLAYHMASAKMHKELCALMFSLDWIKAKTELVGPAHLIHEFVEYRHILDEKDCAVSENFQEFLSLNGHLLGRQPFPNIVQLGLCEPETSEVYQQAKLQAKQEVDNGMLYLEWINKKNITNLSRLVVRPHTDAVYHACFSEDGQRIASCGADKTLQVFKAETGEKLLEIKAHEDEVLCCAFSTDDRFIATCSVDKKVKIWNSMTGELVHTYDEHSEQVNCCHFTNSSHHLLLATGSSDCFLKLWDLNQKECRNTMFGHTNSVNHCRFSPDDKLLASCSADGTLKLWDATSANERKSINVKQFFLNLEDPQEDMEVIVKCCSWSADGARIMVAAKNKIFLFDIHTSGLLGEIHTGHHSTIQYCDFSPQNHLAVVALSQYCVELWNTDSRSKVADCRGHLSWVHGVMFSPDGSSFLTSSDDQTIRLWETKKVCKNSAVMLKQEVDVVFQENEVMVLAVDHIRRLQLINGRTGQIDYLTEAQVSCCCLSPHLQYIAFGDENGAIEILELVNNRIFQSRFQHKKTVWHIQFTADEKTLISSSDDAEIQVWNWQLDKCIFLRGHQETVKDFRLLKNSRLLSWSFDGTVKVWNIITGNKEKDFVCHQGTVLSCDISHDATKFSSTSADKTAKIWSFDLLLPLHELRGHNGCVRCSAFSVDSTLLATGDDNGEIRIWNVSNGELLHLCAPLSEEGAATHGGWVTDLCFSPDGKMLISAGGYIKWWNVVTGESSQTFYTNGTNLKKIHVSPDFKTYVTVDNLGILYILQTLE
The format is functional.

Experiment [5] in a line: Luminescence Cell-Based Dose Response HTS to Identify Activators of Luciferase Translation or Activity in H4 […] Cells. [Related pubchem assays: 1829 (Project Summary), 1814 (Primary HTS)]. The format is functional.
The subject of experiment [6] is H4. Kind of experiment: Luminescence Cell-Based Dose Response HTS to Identify Activators of 5'UTR Stem-Loop Driven Prion Protein mRNA Translation in H4 Neuroglioblastoma Cells. [Related pubchem assays: 1829 (Project Summary), 1814 (Primary HTS)]. The format is functional. As to conditions: Homo sapiens.
In experiment [7] the target is T4, Microphthalmia-associated transcription factor (Homo sapiens, UniProt O75030).
T4 sequence (O75030 whole entry): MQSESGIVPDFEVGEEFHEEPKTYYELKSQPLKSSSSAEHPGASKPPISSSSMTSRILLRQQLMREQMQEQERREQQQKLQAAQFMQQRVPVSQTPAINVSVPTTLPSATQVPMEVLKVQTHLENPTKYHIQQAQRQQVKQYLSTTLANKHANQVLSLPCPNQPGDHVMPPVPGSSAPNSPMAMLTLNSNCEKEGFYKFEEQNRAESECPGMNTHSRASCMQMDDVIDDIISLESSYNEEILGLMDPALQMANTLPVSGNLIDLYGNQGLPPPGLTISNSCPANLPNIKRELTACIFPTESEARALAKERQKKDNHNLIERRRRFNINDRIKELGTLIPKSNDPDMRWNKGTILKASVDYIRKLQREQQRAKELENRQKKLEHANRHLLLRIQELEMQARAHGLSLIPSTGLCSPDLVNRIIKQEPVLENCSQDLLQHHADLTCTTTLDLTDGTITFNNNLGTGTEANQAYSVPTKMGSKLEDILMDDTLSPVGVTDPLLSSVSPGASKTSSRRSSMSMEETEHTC
The experiment in a line: reducers of TRPM1 reporter luminescence, concentration series – cell-based, SK-MEL-5, cherry-picked, set 3, MITF inhibitor project, dose response (AID 493073).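 Note: SK-MEL-5 melanoma cells with luciferase driven by the MITF target TRPM1 promoter.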 The experiment is classed as functional.

For experiment [8], the system named is Vero. Kind of experiment: cells. The experiment is classed as functional, cell-based. As to conditions: Chlorocebus sabaeus.
Experiment [9] has as its system Vero. The experiment in a line: cells. The experiment is classed as functional. As to conditions: Chlorocebus sabaeus.
For experiment [10], the system named is Jurkat. The experiment in a line: blockers of NF-kB activation in T cells – Jurkat, luciferase reporter, luminescence, B- and T-cell, dose response (AID 489004).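 Note: NF-kB luciferase reporter Jurkat cells stimulated with PMA plus ionomycin.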 The format is functional, cell-based. As to conditions: Homo sapiens.
The nature of experiment [11]: HEK-293T viability loss, compound-treated – cell-based, uHTS hits, cytotoxicity control for B/T-cell NF-kB inhibitor project, dose response (AID 489019).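 Note: IC50 reflects cytotoxicity as loss of cell viability.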 The experiment is classed as functional.
Experiment [12] has as its target Delta-type opioid receptor (Homo sapiens, UniProt P41143). The experiment in a line: Counterscreen for agonists of heterodimerization of the mu 1 (OPRM1) and delta 1 (OPRD1) opioid receptors: Luminescence-based cell-based high throughput dose response assay to identify agonists of OPRD1 homodimerization. [Related pubchem assays (depositor defined):AID504326, AID504355, AID504692, AID504904, AID504905]. The format is functional.

The target in experiment [13] is Mu-type opioid receptor (Homo sapiens, UniProt P35372). Kind of experiment: Counterscreen for agonists of heterodimerization of the mu 1 (OPRM1) and delta 1 (OPRD1) opioid receptors: Luminescence-based cell-based high throughput dose response assay to identify agonists of OPRM1 homodimerization. The experiment is classed as functional.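 Note: U2OS cells expressing OPRM1 and beta-arrestin as split beta-galactosidase partners.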
Chain of Mu-type opioid receptor (P35372 whole entry): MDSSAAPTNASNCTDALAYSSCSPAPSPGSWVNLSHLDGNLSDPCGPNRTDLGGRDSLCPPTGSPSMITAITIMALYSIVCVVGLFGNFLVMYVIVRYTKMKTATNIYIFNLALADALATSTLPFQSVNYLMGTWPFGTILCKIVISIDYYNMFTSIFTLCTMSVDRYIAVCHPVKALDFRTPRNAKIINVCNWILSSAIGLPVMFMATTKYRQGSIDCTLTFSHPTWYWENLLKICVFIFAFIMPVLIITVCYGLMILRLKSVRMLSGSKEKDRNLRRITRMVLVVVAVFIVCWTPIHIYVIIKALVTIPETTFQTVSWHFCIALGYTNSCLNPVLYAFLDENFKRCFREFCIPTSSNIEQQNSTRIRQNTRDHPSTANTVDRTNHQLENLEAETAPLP
For experiment [14], the target named is 5-hydroxytryptamine receptor 5A (Homo sapiens, UniProt P47898). Kind of experiment: Counterscreen for agonists of OPRM1-OPRD1 heterodimerization: luminescence-based cell-based high throughput dose response assay to identify agonists of 5-hydroxytryptamine (serotonin) 5A receptor (HTR5A). [Related pubchem assays (depositor defined):AID504326, AID504355, AID504692, AID504904, AID504905]. The format is functional.
Chain of 5-hydroxytryptamine receptor 5A (P47898 whole entry): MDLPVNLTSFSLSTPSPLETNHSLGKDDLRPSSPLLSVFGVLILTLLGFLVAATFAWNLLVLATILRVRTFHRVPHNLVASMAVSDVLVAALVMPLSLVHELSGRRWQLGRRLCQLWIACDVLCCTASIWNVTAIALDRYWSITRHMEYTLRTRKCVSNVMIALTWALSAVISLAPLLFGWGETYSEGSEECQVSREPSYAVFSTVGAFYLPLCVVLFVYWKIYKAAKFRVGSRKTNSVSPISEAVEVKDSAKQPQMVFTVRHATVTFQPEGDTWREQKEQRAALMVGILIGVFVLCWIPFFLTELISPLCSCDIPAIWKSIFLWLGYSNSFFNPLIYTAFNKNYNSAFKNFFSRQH

A short description of experiment [15]: Luminescence Cell-Based Dose Retest to Confirm Inhibitors of Cancer Stem Cells. [Related pubchem assays (depositor defined):AID2717, AID2721]. The format is functional. Conditions: Homo sapiens.
Experiment [16] can be described thus: viability loss of HMLE_sh_eGFP cells – cell-based, luminescence, counter-screen for HMLE_sh_ECad selective toxicity project, dose response (AID 463074).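 Note: HMLE human mammary epithelial cells expressing control shRNA against eGFP.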 The format is functional, Homo sapiens.
The subject of experiment [17] is HEK293. The experiment in a line: cells. Conditions: Homo sapiens.
In experiment [18] the test system is HEK293. The experiment in a line: cells. Conditions: Homo sapiens. The source holds these as a separate data set.
The subject of experiment [19] is HEK293. The experiment in a line: inhibition of NOD1-driven NF-kB reporter – cell-based, luminescence, uHTS, primary screen (AID 1578). Conditions: Homo sapiens. The experiment is classed as functional.
The subject of experiment [20] is HEK293. Kind of experiment: cells. The format is functional, cell-based. As to conditions: Homo sapiens.
The subject of experiment [21] is HEK293. Kind of experiment: cells. The experiment is classed as functional, cell-based. Conditions: Homo sapiens. The source holds these as a separate data set.
Experiment [22] has as its system HEK293. The experiment in a line: NOD2 signaling inhibitors in MDP-stimulated cells, cell-based, uHTS, luminescence (AID 2001). Conditions: Homo sapiens. The experiment is classed as functional.
The subject of experiment [23] is Vero. Kind of experiment: viability of Vero cells under compound – cytotoxicity control for flavivirus capping enzyme inhibitors (AID 588742). The experiment is classed as functional. As to conditions: Chlorocebus sabaeus.
Experiment [24] addresses Genome polyprotein (dengue virus type 2, UniProt P29990). Kind of experiment: flavivirus cap methylation enzyme inhibition – biochemical, confirmation dose response, primary screen (AID 588689). The format is functional.
Experiment [25] has as its target Photoreceptor-specific nuclear receptor (Homo sapiens, UniProt Q9Y5X4). The format is functional, cell-based.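 Note: CHO-S cells with Gal4-NCOR and VP16-NR2E3 two-hybrid luciferase reporter.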
Experiment [26] deals with Tumor necrosis factor (Homo sapiens, UniProt P01375). Kind of experiment: analog potency on TNFa NF-kB signaling – cell-based, revised, SAR follow-up (AID 2337). The format is functional.
Chain of Tumor necrosis factor (P01375 whole entry, the tested form may be a part): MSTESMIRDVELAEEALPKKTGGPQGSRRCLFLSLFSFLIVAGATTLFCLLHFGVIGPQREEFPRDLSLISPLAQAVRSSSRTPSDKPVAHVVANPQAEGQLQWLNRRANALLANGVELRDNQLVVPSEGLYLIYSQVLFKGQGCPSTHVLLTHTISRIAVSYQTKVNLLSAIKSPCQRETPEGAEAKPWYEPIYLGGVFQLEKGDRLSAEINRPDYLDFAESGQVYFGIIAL
Experiment [27] deals with Nucleotide-binding oligomerization domain-containing protein 1 (Homo sapiens, UniProt Q9Y239). The experiment in a line: blockers of NOD1 pathway activity – revised, SAR follow-up (AID 2333). The experiment is classed as functional.
Chain of Nucleotide-binding oligomerization domain-containing protein 1 (Q9Y239 whole entry, the tested form may be a part): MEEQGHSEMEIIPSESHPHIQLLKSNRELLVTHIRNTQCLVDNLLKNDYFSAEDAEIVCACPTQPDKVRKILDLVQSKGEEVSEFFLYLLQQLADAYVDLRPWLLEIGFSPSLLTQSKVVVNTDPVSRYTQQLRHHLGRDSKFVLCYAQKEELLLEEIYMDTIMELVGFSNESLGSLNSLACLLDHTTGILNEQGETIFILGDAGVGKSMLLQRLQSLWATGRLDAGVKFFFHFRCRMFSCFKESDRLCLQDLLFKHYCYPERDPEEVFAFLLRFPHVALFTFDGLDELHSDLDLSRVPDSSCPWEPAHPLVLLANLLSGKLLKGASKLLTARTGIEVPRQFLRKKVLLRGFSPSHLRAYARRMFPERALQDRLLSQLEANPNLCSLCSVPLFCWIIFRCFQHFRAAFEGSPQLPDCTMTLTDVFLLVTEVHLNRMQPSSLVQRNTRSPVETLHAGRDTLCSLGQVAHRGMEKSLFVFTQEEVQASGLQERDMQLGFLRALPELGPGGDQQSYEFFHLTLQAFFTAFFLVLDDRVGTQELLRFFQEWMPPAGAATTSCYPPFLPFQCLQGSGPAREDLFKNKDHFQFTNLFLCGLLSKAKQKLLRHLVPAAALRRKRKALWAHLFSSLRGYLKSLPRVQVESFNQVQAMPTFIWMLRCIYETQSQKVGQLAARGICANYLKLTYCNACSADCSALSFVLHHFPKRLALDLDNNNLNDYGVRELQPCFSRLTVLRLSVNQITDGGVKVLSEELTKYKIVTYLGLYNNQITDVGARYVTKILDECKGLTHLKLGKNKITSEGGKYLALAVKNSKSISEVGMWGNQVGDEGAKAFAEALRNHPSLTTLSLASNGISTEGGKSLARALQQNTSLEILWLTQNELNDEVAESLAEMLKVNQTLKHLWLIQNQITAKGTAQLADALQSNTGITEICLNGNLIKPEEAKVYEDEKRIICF
Experiment [28] addresses Nucleotide-binding oligomerization domain-containing protein 2 (Homo sapiens, UniProt Q9HC29). Kind of experiment: PubChem AID 2334. The format is functional.
Experiment [29] has as its system HEK293. Kind of experiment: cells. Conditions: Homo sapiens. The source holds these as a separate data set.

Chain of Nucleotide-binding oligomerization domain-containing protein 2 (Q9HC29 whole entry, the tested form may be a part): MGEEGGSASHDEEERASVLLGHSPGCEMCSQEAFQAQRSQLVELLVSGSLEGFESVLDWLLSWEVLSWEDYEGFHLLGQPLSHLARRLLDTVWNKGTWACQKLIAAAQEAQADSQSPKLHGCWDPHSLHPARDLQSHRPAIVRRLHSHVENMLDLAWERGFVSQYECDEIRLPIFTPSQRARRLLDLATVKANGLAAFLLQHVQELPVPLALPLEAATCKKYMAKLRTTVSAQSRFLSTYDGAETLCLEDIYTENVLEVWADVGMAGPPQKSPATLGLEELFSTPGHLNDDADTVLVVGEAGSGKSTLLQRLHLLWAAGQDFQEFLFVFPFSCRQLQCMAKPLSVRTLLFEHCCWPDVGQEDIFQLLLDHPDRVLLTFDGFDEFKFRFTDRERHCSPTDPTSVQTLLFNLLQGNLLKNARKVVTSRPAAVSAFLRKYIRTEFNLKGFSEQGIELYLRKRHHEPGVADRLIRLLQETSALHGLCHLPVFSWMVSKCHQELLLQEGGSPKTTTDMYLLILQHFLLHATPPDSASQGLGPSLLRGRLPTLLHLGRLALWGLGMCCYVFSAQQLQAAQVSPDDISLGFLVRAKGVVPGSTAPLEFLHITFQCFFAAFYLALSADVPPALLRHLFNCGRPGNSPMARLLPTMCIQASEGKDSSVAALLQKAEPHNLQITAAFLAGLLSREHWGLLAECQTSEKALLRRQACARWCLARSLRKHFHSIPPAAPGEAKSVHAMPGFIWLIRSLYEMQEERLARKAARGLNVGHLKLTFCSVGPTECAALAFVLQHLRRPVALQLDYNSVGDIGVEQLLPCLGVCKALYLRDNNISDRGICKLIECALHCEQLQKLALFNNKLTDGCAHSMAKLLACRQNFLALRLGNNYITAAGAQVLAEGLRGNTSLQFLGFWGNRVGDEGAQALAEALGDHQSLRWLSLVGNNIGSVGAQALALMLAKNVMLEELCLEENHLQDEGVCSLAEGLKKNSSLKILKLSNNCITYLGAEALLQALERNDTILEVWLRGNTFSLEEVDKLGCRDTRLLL
Chain of Genome polyprotein (P29990 2492-3391 limits assumed): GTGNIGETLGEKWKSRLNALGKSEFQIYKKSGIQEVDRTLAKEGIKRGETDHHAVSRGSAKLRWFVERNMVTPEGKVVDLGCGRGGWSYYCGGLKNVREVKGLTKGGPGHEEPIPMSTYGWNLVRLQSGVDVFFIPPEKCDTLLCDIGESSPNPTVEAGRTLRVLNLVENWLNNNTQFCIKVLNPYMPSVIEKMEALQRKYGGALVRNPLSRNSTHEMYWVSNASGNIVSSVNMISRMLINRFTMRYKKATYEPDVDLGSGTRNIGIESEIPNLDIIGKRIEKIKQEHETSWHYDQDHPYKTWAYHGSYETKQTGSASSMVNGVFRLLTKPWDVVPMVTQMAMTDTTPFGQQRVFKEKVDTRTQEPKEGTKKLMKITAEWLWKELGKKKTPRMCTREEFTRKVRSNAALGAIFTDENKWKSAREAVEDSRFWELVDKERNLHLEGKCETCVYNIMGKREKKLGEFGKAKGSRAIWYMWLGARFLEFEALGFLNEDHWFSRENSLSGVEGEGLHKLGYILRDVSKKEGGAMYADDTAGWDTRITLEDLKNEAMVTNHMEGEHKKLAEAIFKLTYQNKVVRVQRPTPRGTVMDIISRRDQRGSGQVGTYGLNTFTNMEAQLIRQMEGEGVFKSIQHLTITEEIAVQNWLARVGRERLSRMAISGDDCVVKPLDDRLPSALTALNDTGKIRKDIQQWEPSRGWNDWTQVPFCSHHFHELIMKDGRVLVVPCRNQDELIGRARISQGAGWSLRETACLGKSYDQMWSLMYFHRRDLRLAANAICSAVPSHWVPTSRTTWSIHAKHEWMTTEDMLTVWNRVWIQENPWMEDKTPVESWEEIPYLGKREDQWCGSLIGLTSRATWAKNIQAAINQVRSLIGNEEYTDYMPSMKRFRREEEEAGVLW
Chain of Photoreceptor-specific nuclear receptor (Q9Y5X4 whole entry, the tested form may be a part): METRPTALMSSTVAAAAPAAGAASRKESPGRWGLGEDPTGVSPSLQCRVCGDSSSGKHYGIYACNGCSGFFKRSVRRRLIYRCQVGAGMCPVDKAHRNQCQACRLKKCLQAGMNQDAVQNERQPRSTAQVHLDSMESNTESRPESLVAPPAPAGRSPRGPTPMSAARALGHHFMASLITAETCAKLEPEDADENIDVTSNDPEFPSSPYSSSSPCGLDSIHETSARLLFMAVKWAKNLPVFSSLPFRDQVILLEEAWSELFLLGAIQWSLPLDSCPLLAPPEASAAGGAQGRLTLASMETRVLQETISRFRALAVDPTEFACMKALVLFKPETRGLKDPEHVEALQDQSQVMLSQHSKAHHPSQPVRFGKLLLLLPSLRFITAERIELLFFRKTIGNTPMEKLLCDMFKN
Chain of Delta-type opioid receptor (P41143 whole entry): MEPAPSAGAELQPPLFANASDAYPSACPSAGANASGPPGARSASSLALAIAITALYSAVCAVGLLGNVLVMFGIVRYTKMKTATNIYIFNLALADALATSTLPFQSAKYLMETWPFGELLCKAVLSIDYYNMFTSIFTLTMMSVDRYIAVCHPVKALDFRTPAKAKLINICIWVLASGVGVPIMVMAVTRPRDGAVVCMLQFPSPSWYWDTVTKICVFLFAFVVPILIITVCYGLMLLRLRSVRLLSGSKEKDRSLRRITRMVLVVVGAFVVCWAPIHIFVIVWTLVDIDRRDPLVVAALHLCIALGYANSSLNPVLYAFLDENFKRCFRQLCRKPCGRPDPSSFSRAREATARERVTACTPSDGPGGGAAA

With `COc1ccc(C(CNC(=O)c2ccc(S(=O)(=O)Nc3ccccc3F)cc2)N(C)C)cc1` (stereo not given), the IC50 in experiment [1] was > 20 µM (inactive); in [2], 4.54 µM (active); in experiment [3] it was 6.59 µM (active); in experiment [4], > 100 µM (inactive).

For `COc1ccc(/C=C/C(=O)Nc2c(C)nn(C)c2C)cc1COc1ccc(Cl)cc1Br`, the IC50 is 3.32 µM (active) in [1], 15.6 µM (active) in experiment [2] and 17.4 µM (active) in [3].

Consider `N#C/C(=C\C=C\c1ccccc1[N+](=O)[O-])C(=O)NCc1ccccc1`, for which the EC50 in experiment [5] and in [6] was > 120 µM (not active) in each case. For the same molecule, the AC50 in experiment [7] is 14.7 µM (active). Moreover, the 50% inhibitory concentration (IC50) in experiment [8] is > 25 µM (active). For the same molecule, the CC50 in experiment [9] was 15.3 µM (active).

As to `O=C(Nc1nc(-c2ccc(F)c(F)c2)cs1)c1ccc(OCC2CCCO2)cc1` (stereo not given), the IC50 in [10] and in [11] was > 80 µM (inactive) in each case.

As for `COc1ccc(C2CC(c3ccc(OC)cc3)n3nc(NC(=O)c4cccs4)nc3N2)cc1` (stereo not given), the EC50 in experiment [12], in experiment [13] and in [14] was > 92.5 µM (inactive) throughout.

`O=C(NCCc1ccc(Cl)cc1Cl)c1cc([N+](=O)[O-])cnc1O`: the AC50 in [15] was 4.14 µM (active); in experiment [16] it was 61.9 µM (active).

Regarding `NC(=O)CC(NC(=O)Cc1cccc2ccccc12)c1ccc(NCCOc2ccccc2)c([N+](=O)[O-])c1` (stereo not given), the AC50 in experiment [15] is 147 µM (active); in experiment [16], 22.9 µM (active).

Turning to `C=CCNc1sc(C(=O)c2ccccc2)c(N)c1-c1nc2ccccc2s1`, the EC50 in experiment [17] and in experiment [18] was > 59.7 µM (inactive) throughout.

Consider `CC(C)c1ccc(-c2csc(NC(=O)c3cccs3)c2C(=O)O)cc1`, for which the EC50 in experiment [19] was 8.7 µM (active). Besides, the IC50 in experiment [20] is > 20 µM (inactive); in experiment [21], > 20 µM (inactive); in experiment [22] it was 9.22 µM (active); in experiment [24], 39.9 µM (active); in [25] it was 6.83 µM (active). Besides, the CC50 in [23] was > 40 µM (active).

Take `Cn1nccc1C(=O)N[C@@H]1CCCc2c1cnn2-c1ccccc1F`: the IC50 is > 20 µM (inactive) in experiment [26], 18.7 µM (active) in [27], > 20 µM (inactive) in experiment [28] and > 20 µM (inactive) in [29].

`CCOC(=O)c1c(-c2cccc3ccccc23)csc1NC(=O)C1C2CCC(O2)C1C(=O)O` (stereo not given): the IC50 in experiment [8] was > 25 µM (active).
